Results on two compounds are retold here after patent publication US11065239B2, “Use of EZH2 inhibitor combined with BTK inhibitor in preparing drug for treating tumor” (Jiangsu Hengrui Medicine Co., Ltd., priority 2017, dated 2021).

Assay [1] has as its system human B cell lymphoma DOHH-2 cells. Kind of assay: Proliferation of DOHH-2 cells in vitro (MTT). It counts as cell-based. As to conditions: single compound, 72 hours. Here is the method:
Cell line: human B cell lymphoma DOHH-2 cells (purchased from DSMZ), cultured in vitro in RPMI 1640 medium containing 10% fetal bovine serum (FBS).
(§1) Each of the test compounds was all formulated with DMSO into a 10 mM stock solution, which was formulated into the desired concentration with serum-free medium when used.
A certain number of cells in logarithmic growth phase was inoculated in a 96-well culture plate. After 24 hours, the cells were added with the test compounds in different concentrations (1-100000 nM), and incubated for 72 hours. Each well was added with the MTT working solution. After 4 hours, the cells were lysed with the triple solution, and the OD value was measured at a wavelength of 570 nm by a microplate reader. […]
The half effective concentration IC50 was calculated using the non-linear regression method according to the inhibition, rate of each concentration.
In the combined administration, the concentration ratio of compound A to compound B was 1:10. The combination index (CI) was calculated with Calcu-Syn program using the median effect method to evaluate the relationship between the two compounds during the combined administration (CI<1 refers to synergistic effect, CI=1 refers to additive effect, CI>1 refers to antagonistic effect).

The test system of assay [2] is human B cell lymphoma SU-DHL-4 cells. Kind of assay: Proliferation of SU-DHL-4 cells in vitro (MTT). It is filed as cell-based. To be noted: single compound, 72 hours. Here is the method: (§2) Cell line: human B cell lymphoma SU-DHL-4 and SU-DHL-6 cells (purchased from ATCC), cultured in vitro in RPMI 1640 medium containing 10% fetal bovine serum (FBS).
as §1
(§3) A certain number of cells in logarithmic growth phase was inoculated in a 96-well culture plate. After 24 hours, the cells were added with the test compounds in different concentrations (1-40000 nM), and incubated for 72 hours. Each well was added with the MTT working solution. After 4 hours, the cells were lysed with the triple solution (10% SDS, 5% isobutanol, 0.012 mol/L HCl) at 37° C. overnight, and the OD value was measured at a wavelength of 570 nm by a microplate reader. […]
(§4) The half effective concentration IC50 was calculated using the non-linear regression method according to the inhibition rate of each concentration.
(§5) In the combined administration, the concentration ratio of compound A to compound B was 1:2 (for SU-DHL-4) and 1:4 (for SU-DHL-6). The combination index (CI) was calculated with Calcu-Syn program using the median effect method to evaluate the relationship between the two compounds during the combined administration (CI<1 refers to synergistic effect, CI=1 refers to additive effect, CI>1 refers to antagonistic effect).

The test system of assay [3] is human B cell lymphoma SU-DHL-4 cells subcutaneous transplantation tumor. Kind of assay: Subcutaneous transplantation tumor in mice inoculated with SU-DHL-4 cells. As to conditions: SU-DHL-4 xenograft, PO; for Mean tumor volume D 0: baseline at first administration; for Mean tumor volume D 0 / % T/C D 14 / % tumor inhibition rate D 14 / Mean tumor volume D 14 / Complete regression (number of mice) / Partial regression (number of mice): 50 mg/kg each, BID, D 0-13; for Complete regression (number of mice) / Partial regression (number of mice): 8 mice per group; for tumor completely regressed, fraction of mice / tumor partially regressed, fraction of mice: 50 mg/kg; for tumor partially regressed, fraction of mice: text says QD×14. It counts as in vivo, SCID.BG mice. An excerpt:
Test animals: SCID.BG mice, 5-6 weeks old, female, purchased from Shanghai Lingchang Biotechnology Co., Ltd., with laboratory animals use license No.: SCXK (Shanghai) 2013-0018 and animal certificate No.: 2013001820833, feeding condition: SPF grade.
The test compounds were all formulated with 0.2% Tween 80+0.5% CMC solution, and diluted to the corresponding concentration.
(1) The mice were subcutaneously inoculated with SU-DHL-4 cells (B cell lymphoma SU-DHL-4 cells were purchased from ATCC). When the tumors grown to 100-150 mm^3, the animals were grouped according to the tumor volume (D0).
(§6) (2) Observation and recording: the tumor volume was measured 2 to 3 times per week, the mice were weighed, and the data were recorded.
(§7) The endpoint is mainly dependent on whether the tumor growth is delayed or whether the mouse is cured. The tumor volume (in mm^3) was measured twice a week with caliper in two dimensions.
The tumor volume (V) is calculated as: V=0.5×a×b^2, wherein a and b represent length and width, respectively; T/C (%)=(T−T0)/(C−C0)×100, wherein T and C represent the tumor volume at the end of the experiment; T0 and C0 represent the tumor volume at the beginning of the experiment. The T/C value (percentage) is indicative of anti-tumor efficacy. Tumor growth inhibition rate (TGI) (%)=100−T/C (%);
When the tumor regressed, the tumor growth inhibition rate (TGI) (%)=100−(T−T0)/T0×100
If the tumor volume is smaller than the initial volume, i.e. T<T0 or C<C0, it is defined as partial regression (PR); if the tumor completely disappears, it is defined as complete regression (CR).
(§8) (4) Data analysis: the statistics were summarized, including mean and standard error of mean (SEM), statistical analysis of differences in tumor volume between groups, and analysis of data obtained by drug interaction that was carried out at the optimal treatment time point after the last administration (Day 14 after grouping). One-way variance analysis was performed to compare tumor volume and tumor weight between groups. When a […] F-statistic was obtained (p<0.001, treatment variance vs. error variance), single-tailed Mann-Whitney statistical analysis was performed to compare tumor volumes of the two groups, and P<0.05 was considered as statistically significant.

The test system of assay [4] is human B cell lymphoma SU-DHL-6 cells. Kind of assay: Proliferation of SU-DHL-6 cells in vitro (MTT). It counts as cell-based. As to conditions: single compound, 72 hours. Here is the method:
as §2, §1, §3, §4, §5

In assay [5] the test system is human follicular lymphoma DOHH-2 cells subcutaneous transplantation tumor. Put plainly: Subcutaneous transplantation tumor in nude mice inoculated with DOHH-2 cells. It is filed as in vivo, BALB/cA-nude nude mice. To be noted: DOHH-2 xenograft, 50 mg/kg each, PO, BID, D 0-20; for Mean tumor volume D 0: baseline at first administration.
Text: Test animals: BALB/cA-nude nude mice, 5-6 weeks old, female, purchased from Shanghai Lingchang Biotechnology Co., Ltd., with laboratory animals use license No.: SCXK (Shanghai) 2013-0018 and animal certificate No.: 2013001818958, feeding condition: SPF grade.
The test compounds were all formulated with 0.2% Tween 80+0.5% CMC solutions, and diluted to the corresponding concentration.
(1) The nude mice were subcutaneously inoculated with lymphoma DOHH-2 cells. When the tumors grown to 100-200 mm^3, the animals were grouped randomly (D0).
as §6, §7
The tumor volume (V) is calculated as: V=0.5×a×b^2, wherein a and b represent length and width, respectively; T/C (%)=(T−T0)/(C−C0)×100, wherein T and C represent the tumor volume at the end of the experiment; T0 and C0 represent the tumor volume at the beginning of the experiment. The T/C value (percentage) is indicative of anti-tumor efficacy.
as §8, with “21” for “14”, “the comparison between groups” for “single-tailed Mann-Whitney statistical analysis”, “using Games-Howell test. All data were analyzed using SPSS17.0,” for “to compare tumor volumes of the two groups,”

Each structure is given as a SMILES string.

Turning to `CC#CC(=O)N1CC[C@@H](n2cc(-c3ccc(Oc4c(F)cccc4F)cc3)c3c(N)n[nH]c(=O)c32)C1` [Compound A], the 50% inhibitory concentration (IC50) in assay [1] is 325 nM. Further, the IC50 in assay [2] stood at 1060 nM. Besides, in assay [3], the “Mean tumor volume D 0” value was determined as 122.4 mm^3, the “% T/C D 14” value is recorded as 24%, the “% tumor inhibition rate D 14” value turned out to be 76% and the “Mean tumor volume D 14” value is 276.9 mm^3. In addition, in assay [3], the “Complete regression (number of mice)” value is 1; the “Partial regression (number of mice)” value is given as 1; the “tumor completely regressed, fraction of mice” value is 1/8; the “tumor partially regressed, fraction of mice” value is 1/8. For the same compound, the 50% inhibitory concentration (IC50) in assay [4] was found to be 711 nM. In addition, in assay [5], the “Mean tumor volume D 0” value was 111.1 mm^3, the “% T/C D 21” value is reported as 51%, the “% tumor inhibition rate D 21” value worked out at 49% and the “Mean tumor volume D 21” value is recorded as 742.0 mm^3.
For `CCc1c(N(CC)C2CCOCC2)cc2oc(CN3CCCCC3)cc2c1C(=O)NCc1c(C)cc(C)[nH]c1=O` [Compound B, N-((4,6-dimethyl-2-oxo-1,2-dihydropyridin-3-yl)methyl)-5-ethyl-6-(ethyl(tetrahydro-2H-pyran-4-yl)amino)-2-(piperidin-1-ylmethyl)benzofuran-4-carboxamide], the IC50 in assay [1] was 5920 nM. In assay [2], the half-maximal inhibitory concentration (IC50) worked out at 2170 nM. In addition, in assay [3], the “Mean tumor volume D 0” value is given as 126.6 mm^3, the “% T/C D 14” value stood at 40%, the “% tumor inhibition rate D 14” value is on record as 60% and the “Mean tumor volume D 14” value is listed as 384.7 mm^3. In assay [3], the “Complete regression (number of mice)” value worked out at 1; the “Partial regression (number of mice)” value was 2; the “tumor completely regressed, fraction of mice” value is on record as 1/8; the “tumor partially regressed, fraction of mice” value was 2/8. The IC50 in assay [4] is 4660 nM. Besides, in assay [5], the “Mean tumor volume D 0” value turned out to be 107.7 mm^3, the “% T/C D 21” value amounted to 65%, the “% tumor inhibition rate D 21” value is listed as 35% and the “Mean tumor volume D 21” value was found to be 914.1 mm^3.

The IC50 is the concentration that inhibits the measured activity by half.
